Measured values reported in patent publication US5612356A, “Heterocycle-containing carbonic acid derivatives” (Eisai Co., Ltd., priority 1992, dated 1997).

Tests used:
[1] = test system: HL60 cell; assay: Antagonism against all-trans retinoic acid in inducing the differentiation of HL60 cell (CD11b-positive cells, flow cytometry); type: cell-based; conditions: Homo sapiens, HL-60, 120 h, all-trans retinoic acid 30 nM, 5 days
Text: Antagonism against all-trans retinoic acid in inducing the differentiation of HL60 cell
It has been known that a human promyelocytic leukemia cell strain HL60 is differentiated into granulocytic cells in the presence of all-trans retinoic acid (see Breitman, T., Selonick, S., and Collins, S., Proc. Natl. Acad. Sci. USA, 77, 2936(1980)). Generally, a cell forms a specific differentiation antigen on its surface, when it has achieved differentiation. When an HL60 cell is differentiated into a granulocytic cell, CD11b which is an antigen discriminating granulocyte or monocute is formed on the surface of the cell (see Fontana, J. A., Reppuci, A., Durham, J. P., and Mirand, D., Cancer Res. 46, 2469 to 2473 (1986)). The antagonism against the differentiation of HL60 into granulocytic cell which is induced by all-trans retionic acid was studied by utilizing the above phenomenon.
HL60 cells were cultured and maintained in a culture medium prepared by adding 10% of inactivated bovine fetus serum, 1 mM of sodium pyruvate, 50 μM of β-mercaptoethanol, 100 I.U./ml of penicillin and 100 μg/ml of streptomycin to RPMI1640 (a culture medium formulated in Rosewell Park Memorial Institute).
The resulting plate was incubated in an incubator (5% CO2 /air) for 5 days. After the incubation, the cells of each well were recovered into a test tube, followed by the addition thereto of an FITC-labeled monoclonal antibody reactive with CD11b which is an antigen specific to granulocyte or monocute. The resulting cells were immobilized with 0.2% paraformaldehyde. The immobilized cell suspension was examined by flow cytometry for the proportion of CD11b-positive cells in the above HL60 cell group in each well (see Miller, L. J., Schwarting, R., and Springer, T. A., J. Immunol. 137, 2891 to 2900 (1986)).

[2] = target: T1, retinoic acid receptor (RAR) (Homo sapiens, UniProt P10276); assay: Receptor binding assay using human promyelocytic leukemia cell HL60 (nuclear extract), inhibition of 3H-all-trans retinoic acid binding to RAR; conditions: HL60 cell nucleus extract, 4° C., 16 hours
T1 construct: by the use of an extract from HL 60 cell nuclei; endogenous in cells; host or cells: HL60 human promyelocytic leukemia cells, 0.8 M KCl nuclear extract
T1 sequence (P10276 1-462): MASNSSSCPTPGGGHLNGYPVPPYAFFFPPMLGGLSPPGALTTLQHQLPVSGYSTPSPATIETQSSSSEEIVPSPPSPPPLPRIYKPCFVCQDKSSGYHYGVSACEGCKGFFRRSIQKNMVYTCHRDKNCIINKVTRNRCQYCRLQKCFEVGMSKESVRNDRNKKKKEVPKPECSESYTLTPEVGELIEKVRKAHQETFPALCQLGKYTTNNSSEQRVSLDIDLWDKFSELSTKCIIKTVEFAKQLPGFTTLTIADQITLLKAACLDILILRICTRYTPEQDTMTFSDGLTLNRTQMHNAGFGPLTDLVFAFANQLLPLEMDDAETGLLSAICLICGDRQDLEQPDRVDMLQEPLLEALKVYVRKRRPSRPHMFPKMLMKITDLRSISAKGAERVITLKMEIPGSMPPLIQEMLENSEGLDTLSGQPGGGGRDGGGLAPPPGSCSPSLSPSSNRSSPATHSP
Method: Receptor binding assay using human promyelocytic leukemia cell, HL60
It has been known that a receptor for all-trans retinoic acid [i.e., retinoic acid receptor (RAR)] is present in the nucleus of HL 60 cell (see Clara Nervi et al., Proc. Natl. Acad. Sci. USA, 86, 5854 (1989)). Therefore, the extent of specific binding of all-trans retionic acid to RAR was determined by the use of an extract from HL 60 cell nuclei; and the ability of each compound to bind to RAR was determined based on the inhibitory activity of the compound against the above specific binding.
The above cell nucleus extract was prepared as follows.
HL 60 cells (5×10^8) were suspended in 15 ml of a solution A [comprising 5 mM of sodium phosphate (pH: 7.4), 10 mM of monothioglycerol,10% (v/v) of glycerol, 1 mM of phenylmethylsulfonyl fluoride (PMSF), 10 μg/ml of aprotinin and 25 μg/ml of leupeptin). The obtained suspension was homogenized with a homogenizer and centrifuged to remove a formed supernatant. The obtained sediment was suspended in 15 ml of a solution B [comprising 10 mM of Tris-HCl (pH: 8.5), 10 mM of monothioglycerol, 10% (v/v) of glycerol, 1 mM of PMSF, 10 μg/ml of aprotinin, 25 μg/ml of leupeptin and 0.8 M of KC1]. The obtained suspension was allowed to stand at 4° C. for one hour and ultracentrifuged (under the conditions of 100,000×g and 4° C. for one hour). The supernatant thus obtained was stored in a state freezed at -80° C. and used as the cell nucleus extract [see Methods in Enzymology, 189: 248).
The receptor binding assay was conducted as follows.
180 μl of the above extract and 10 μl of a dilution of all-trans retionic acid or a compound to be tested were put in each well of a 96-well polypropylene plate, followed by the addition thereto of ^3 H-all-trans retionic acid in an amount of 10 μl/well. The plate was allowed to stand at 4° C. for 16 hours. A solution containing 3% of charcoal and 0.3% of dextran was added to the reaction mixture in the well and the obtained mixture was centrifuged to remove free ^3 H-all-trans retionic acid. The intensity of radiation of the supernatant was determined with a scintillation counter. The extent of specific binding of all-trans retinoic acid to RAR was determined by taking the intensity of radiation, observed when 200-fold excess of all-trans retinoic acid was added, as that of a nonspecific binding, and substracting the intensity of radiation thus taken from that of the one determined above.

Compound	IC50 [1]	IC50 [2]
CCCCCn1cc(-c2ccc(C(=O)O)cc2)c2c1-c1cc3c(cc1CC2)C(C)(C)CCC3(C)C [Example 22]	14000 nM	32 nM
CC1(C)CCC(C)(C)c2cc3c(cc21)CCc1c(-c2ccc(C(=O)O)cc2)cn(Cc2cccnc2)c1-3 [Example 16, 4-[4,5,7,8,9,10-Hexahydro-7,7,10,10-tetramethyl-1(3-pyridylmethyl)anthra[1,2-b]pyrrol-3-yl]benzoic acid]	120 nM	< 0.5 nM
CC1(C)CCC(C)(C)c2cc3c(cc21)CCc1c(-c2ccc(C(=O)O)cc2)cn(-c2ccccc2)c1-3 [Example 18]	2700 nM	4.2 nM
CC(C)n1nc(-c2ccc(C(=O)O)cc2)c2c1-c1cc3c(cc1CC2)C(C)(C)CCC3(C)C [Example 2]	6700 nM	50 nM
CCn1nc(-c2ccc(C(=O)O)cc2)c2c1-c1cc3c(cc1CC2)C(C)(C)CCC3(C)C [Example 1, 4-(1-Ethyl-4,5,7,8,9,10-hexahydro-7,7,10,10-tetramethylanthra[2,1-d]pyrazol-3yl)benzoic acid]	700 nM	4 nM
CC1(C)CCC(C)(C)c2cc3c(cc21)CCc1c(-c2ccc(C(=O)O)cc2)cn(-c2cccnc2)c1-3 [Example 19]	480 nM	0.5 nM
CCCCCCCOc1cc2c(cc1/C(C)=C/c1ccc(C(=O)O)cc1)C(C)(C)CCS2(=O)=O [Example R041-5253, reference compound]	7200 nM	9 nM
CC1(C)CCC(C)(C)c2cc3c(cc21)CCc1c(-c2ccc(C(=O)O)cc2)nn(Cc2ccccc2)c1-3 [Example 4]	1000 nM	< 0.5 nM
CC1(C)CCC(C)(C)c2cc3c(cc21)CCc1c(-c2ccc(C(=O)O)cc2)coc1-3 [Example 106, 4-(4,5,7,8,9,10-Hexahydro-7,7,10,10-tetramethylanthra-[1,2-b]furan-3-yl)benzoic acid]	3800 nM	26 nM
Cn1nc(-c2ccc(C(=O)O)cc2)c2ccc3cc4c(cc3c21)C(C)(C)CCC4(C)C [Example 14, 4-(7,8,9,10-Tetrahydro-1,7,7,10,10-pentamethylanthra-[2,1-d]pyrazol-3-yl)benzoic acid]	2200 nM	50 nM
Cn1nc(-c2ccc(C(=O)O)cc2)c2c1-c1cc3c(cc1SC2)C(C)(C)CCC3(C)C [Example 11]	1200 nM	9 nM
Cn1nc(-c2ccc(C(=O)O)cc2)c2c1-c1cc3c(cc1CC2)C(C)(C)CCC3(C)C [Example 7, 4-(4,5,7,8,9,10-Hexahydro-1,7,7,10,10-pentamethylanthra[2,1-d]pyrazol-3-yl)benzoic acid]	560 nM	22 nM
